# Calls of active or inactive are those of the source. No cut-off for these calls is given here.
# What was measured:
# [1] = Drug level in rat plasma at 5 mg after 6 hrs; format: ADME, cell-free
# [2] = system: Mus musculus; experiment: Antiinflammatory activity against carrageenan-induced paw edema in ICR mouse at 300 mg/kg, po administered 1 hr before carrageenan challenge measured after 3 hrs by plethysmometer relative to control; format: functional
# [3] = system: Mus musculus; experiment: Antiinflammatory activity against carrageenan-induced paw edema in ICR mouse at 300 mg/kg, po administered 1 hr before carrageenan challenge measured after 6 hrs by plethysmometer relative to control; format: functional
# [4] = system: Mus musculus; experiment: Antiinflammatory activity against carrageenan-induced paw edema in ICR mouse at 300 mg/kg, po administered 1 hr before carrageenan challenge measured after 24 hrs by plethysmometer relative to control; format: functional
# [5] = system: Mus musculus; experiment: Antiinflammatory activity against carrageenan-induced paw edema in ICR mouse at 300 mg/kg, po administered 6 hr before carrageenan challenge measured after 3 to 24 hrs by plethysmometer; format: functional, organism-based; parameters: dose 300 mg/kg
# [6] = system: Mus musculus; experiment: Antioxidant activity against AAPH-induced lipid peroxidation in ICR mouse assessed as increase in ORAC score in plasma at 300 mg/kg, po after 1 hr relative to control; format: functional
# [7] = system: Mus musculus; experiment: Antioxidant activity against AAPH-induced lipid peroxidation in ICR mouse assessed as decrease in ORAC score in plasma at 300 mg/kg, po after 6 hr relative to control; format: functional; parameters: scale not given: the % may be the effect or the level left
# [8] = system: Plasma; experiment: Drug level in ICR mouse plasma assessed as free compound level after 1 hr in presence of beta-glucuronidase by HPLC-ESI-MS/MS analysis; format: ADME, cell-free
# [9] = system: Plasma; experiment: Drug level in ICR mouse plasma assessed as free compound level after 6 hrs in presence of beta-glucuronidase by HPLC-ESI-MS/MS analysis; format: ADME, cell-free
# [10] = Drug level in human plasma after 0.5 hrs; format: ADME, cell-free
# [11] = Drug level in human plasma after 6 hrs; format: ADME, cell-free
# [12] = system: Plasma; experiment: Drug level in ICR mouse plasma assessed as free compound level after 1 hr in presence of beta-glucuronidase by HPLC-ESI-MS/MS analysis relative to total compound level; format: ADME, cell-free
# [13] = system: Plasma; experiment: Drug level in ICR mouse plasma assessed as free compound level after 6 hrs in presence of beta-glucuronidase by HPLC-ESI-MS/MS analysis relative to total compound level; format: ADME, cell-free
concentration at 6 h [1] [nM],Cp(f) [8] [nM],Cp(f) [9] [nM],concentration at 0.5 h [10] [nM],concentration at 6 h [11] [nM],Cp(f) [12] [%],Cp(f) [13] [%],Structure (SMILES),Activity [2] [%],Activity [3] [%],Activity [4] [%],Activity [5],Activity [6] [%],Activity [7] [%]
450,,,,,,,O=C1O[C@H]2[C@@H]3OC(=O)c4cc(O)c(O)c(O)c4-c4c(cc(O)c(O)c4O)C(=O)OC[C@H]2O[C@@H](OC(=O)c2cc(O)c(O)c(O)c2)[C@@H]3OC(=O)c2cc(O)c(O)c3c2[C@@H]2C1=CC(=O)[C@](O)(O3)C2(O)O [GERANIIN],,,,,,
,2850,830,40,110,77.2,65.7,O=c1oc2cc(O)ccc2c2ccc(O)cc12,35,26,34,inactive,142,118

# Source: ChEMBL document CHEMBL1833831, “In vivo anti-inflammatory and antioxidant properties of ellagitannin metabolite urolithin A” (Bioorg Med Chem Lett, 2011)
